# From US12268657B2, “Coenzyme Q10 composition, and preparation method and application thereof in cardio-protection” (Guangdong Runhe Biotechnology Co., Ltd, priority 2023, dated 2025)
# System: myocardial ischemia rat models
# Assay: Protective effect on myocardial ischemia in rat model (coronary artery clamping)
# Type: in vivo
# Conditions: SD rats, 0.2 mg/kg per day for one week
# Method: Specifically, several SD rats weighing about 200 g were selected to prepare myocardial ischemia rat models by a coronary artery clamping method. The successful-established model rats were uniformly divided into a blank group, a control group, and a treatment group, with 8 rats in each group. The blank group was not treated with any drug during the observation period, the control group was administered with 0.2 mg/kg of coenzyme Q10 per day for one week, and the treatment group was administered with 0.2 mg/kg of the coenzyme Q10 slow-release drug per day for one week. After the one-week administration, the myocardial infarction area, and superoxide dismutase (SOD) and malondialdehyde (MDA) content in the serum of the rats after artery ligation were recorded, and the results were shown in the table below. […] Moreover, after treatment with the slow-release drug, the activity of SOD was improved, and the generation of MDA was inhibited, which was favorable to reducing the occurrence of infarction.
smiles,measurement,setting,value
"COC1=C(OC)C(=O)C(C/C=C(\C)CC/C=C(\C)CC/C=C(\C)CC/C=C(\C)CC/C=C(\C)CC/C=C(\C)CC/C=C(\C)CC/C=C(\C)CC/C=C(\C)CCC=C(C)C)=C(C)C1=O [coenzyme Q10, Coenzyme Q10]",Myocardial infarction area (%),,14.69 ± 1.14%
same,MDA,serum,6.57 ± 0.68 nmol/mL
same,SOD (NU/mL),serum,220.34 ± 8.56 NU/mL
